The test system of the assay is 422866-222-R5-J1-PDC spheroid viability. The experiment in a line: Anticancer human tumor 422866-222-R5-J1-PDC patient-derived pancreatic adenocarcinoma cell line growth inhibition [CLK]. The conditions noted are these: spheroids with HUVEC and MSC; for viability, T/C: stronger effect = lower value. In short, it runs like this: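 Multi-cell-type spheroids combined patient-derived tumor cells with HUVEC endothelial cells and human mesenchymal stem cells. Paired agents were dosed in half-log steps down from about clinical Cmax, or from 10 microM where Cmax was unknown.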

Values joined by “and” are separate entries in the source; they are usually repeats but may differ in a detail not shown here. Identical values can stand only once. Some results are limits rather than exact numbers.
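Note: spheroids exposed to agents for seven days before readout.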

In general, viability, T/C refers to the ratio of treated to control. Usually IC50 stands for the concentration that inhibits the measured activity by half. For `CN1CCN(c2cc(C(=O)Nc3cc4cc(-c5cnn(C)c5)ccc4cn3)ccn2)CC1`, the viability, T/C by setting is: (compound 1 µM) 25.8% [middle of 12 runs]; (compound 3.16 µM) 11% [middle of 12 runs]; (compound 10 µM) 2.14% [middle of 12 runs]. Moreover, under “compound alone, run of 08/14/2023”, the IC50 is 650 nM [middle of 12 runs].

In the case of `C#Cc1c(F)ccc2cc(O)cc(-c3ncc4c(N5CC6CCC(C5)N6)nc(OCC56CCCN5CC(F)C6)nc4c3F)c12` (stereo not given), the viability, T/C is 76.7% and 87.4% (compound 0.0316 µM); 73.1% and 85.8% (compound 0.1 µM); 55.9% and 64.3% (compound 0.316 µM); 51.7% and 67% (compound 1 µM); 36.1% and 38.3% (compound 3.16 µM); 26.8% and 29.4% (compound 10 µM). The IC50 (curve of compound) is 881 nM and 1900 nM.

With `Nc1ccn(C2OC(CO)C(O)C2(F)F)c(=O)n1` (stereo not given), the viability, T/C reads like this: (compound 0.0316 µM) 73.9% and 72.8%; (compound 0.1 µM) 60.1% and 44.8%; (compound 0.316 µM) 44.6% and 38%; (compound 1 µM) 41.9% and 46.5%; (compound 3.16 µM) 41.6% and 39.7%; (compound 10 µM) 36.3% and 40.9%. Further, the IC50 (curve of compound) is 221 nM and 79.5 nM.

`Cn1ncnc1[C@H]1c2n[nH]c(=O)c3cc(F)cc(c23)N[C@@H]1c1ccc(F)cc1`: the viability, T/C was 86.9% and 103% (compound 0.000316 µM); 110% and 95.5% (compound 0.001 µM); 97% and 99.8% (compound 0.00316 µM); 101% and 87.8% (compound 0.01 µM); 91.4% (compound 0.0316 µM); 85% and 87.1% (compound 0.1 µM). Moreover, the IC50 (curve of compound) was > 100 nM.

For the origin of these results see PubChem BioAssay AID2060603 (Molecular Pharmacology Branch, DTP, NCI, 2025).
